# Measured values from publication PMC12657942, “Measurement and modeling of rizatriptan in supercritical CO2 for pharmaceutical processing” (Scientific Reports, 2025).
# Assays:
# Type in all cases: physicochemical
# [1] = Solubility of rizatriptan in supercritical CO2, static gravimetric method
# Protocol: (§1) A specialized high-pressure system is employed to measure the solubility of rizatriptan using gravimetric techniques in a supercritical CO2[6]. A 200 mL vessel capable of withstanding pressures up to 35 MPa and temperatures up to 423 K is prepared with leak-free seals, valves, and fittings. All valves and connectors were 1/8 inch in size. The system’s pressure and temperature sensors are calibrated for accuracy. Next, 2000 mg of rizatriptan powder is weighed precisely using an analytical balance with 0.01 mg of sensitivity. The powder is then compacted into 5-mm diameter tablets to ensure uniformity and structural integrity. The tablets are placed in a basket inside the vessel to maximize their exposure to SC-CO2. CO2 is introduced gradually using a high-precision pump (SC-1000, SUPEREX), with the pressure increased in 0.05 MPa increments to maintain stability. The pressure is monitored and held within ± 0.01 MPa. Temperature is controlled within ± 0.1 K using a thermocouple, and the mixture is stirred at 250 rpm to ensure uniformity. […] The pressure and temperature indicators are checked to ensure stability. After equilibration, the vessel is carefully depressurized to ambient conditions to halt dissolution without losing the sample. The remaining tablets are then removed and cleaned of residual CO2. If needed, they are dried in a desiccator. The undissolved drug is weighed using a high-precision balance. The experiment is replicated at least three times to calculate the mean solubility and standard deviation. The following formula was used to calculate the mass of dissolved rizatriptan:1
# Include the molecular weights of rizatriptan ([…]) and CO2 (44.01 g/mol) in the mole fraction calculations.2 3 4 5
# The measurements were conducted at four isotherms (308.2 K, 318.2 K, 328.2 K, and 338.2 K) and […] pressure points (12, 15, 18, 21, 24, 27, 30 MPa). Table 3 documents the experimental conditions, including temperature, pressure, SC-CO2 density, mole fraction, standard deviation, and solubility in grams per liter.
# [2] = Enthalpies (total, vaporization, solvation) derived from density-based solubility models; conditions: SC-CO2
# Protocol: This study thoroughly examines the solubility of rizatriptan in SC-CO2 for pharmaceutical processing by supercritical fluid technology. A series of experimental solubility measurements were conducted at a range of temperatures, from 308.2 to 338.2 K, and pressures ranging from 12 to 30 megapascals. Seven density-based models ( Chrastil, Bartle, K–J, Méndez–Santiago–Teja, Bian et al., and Sodeifian et al. (Ⅰ and Ⅱ)) and three equations of state (Peng–Robinson, Soave–Redlich–Kwong, and regular solution) were employed to analyze the resulting data. Additionally, the enthalpies of the total, vaporization, and solvation processes were derived to elucidate phase behavior.
# This leads to the logarithmic relationship, where the enthalpy term combines solvation and vaporization effects
# The Bartle model extends the concept by normalizing solubility with pressure and using a reduced density term, allowing direct estimation of the solute’s heat of vaporization from parameter. […] The MST model was derived from a Taylor expansion of the Helmholtz free energy near the solvent’s critical point, focusing on infinite dilution behavior. By incorporating the Clausius–Clapeyron equation for missing sublimation pressure data, it becomes a robust three-parameter tool. It excels in self-consistency checks, where plotting ) against density (ρ), should yield a single line for reliable data. […]
# [3] = Preliminary tests of equilibration time for solubility in SC-CO2 (Table S1); conditions: supercritical CO2, 65 °C, organic solvent or mixture, thermodynamic from solid, read-out: Solubility (preliminary test)
# Protocol: as §1
# Table S1. Preliminary tests.
structure (smiles),measurement,setting,value
"CN(C)CCc1c[nH]c2ccc(Cn3cncn3)cc12 [Rizatriptan, Rizatriptan benzoate]",solubility at 240 min,"[1]; supercritical CO2, 308.2 K to 338.2 K, 12 to 30 MPa, read-out: solubility (dissolution concentration) in SC-CO2, range over all conditions",8 to 302 µg/mL
same,solubility at 240 min,"[1]; supercritical CO2, T 308.0 K (text 308.2 K), P 12 MPa, ρCO2 768.52 kg/m^3, read-out: Solubility in supercritical carbon dioxide",61.6 µg/mL
same,solubility at 240 min,"[1]; supercritical CO2, T 308.0 K (text 308.2 K), P 15 MPa, ρCO2 816.10 kg/m^3, read-out: Solubility in supercritical carbon dioxide",88 µg/mL
same,solubility at 240 min,"[1]; supercritical CO2, T 308.0 K (text 308.2 K), P 18 MPa, ρCO2 816.10 kg/m^3, read-out: Solubility in supercritical carbon dioxide",107 µg/mL
same,solubility at 240 min,"[1]; supercritical CO2, T 308.0 K (text 308.2 K), P 21 MPa, ρCO2 874.55 kg/m^3, read-out: Solubility in supercritical carbon dioxide",138 µg/mL
same,solubility at 240 min,"[1]; supercritical CO2, T 308.0 K (text 308.2 K), P 24 MPa, ρCO2 895.66 kg/m^3, read-out: Solubility in supercritical carbon dioxide",181 µg/mL
same,solubility at 240 min,"[1]; supercritical CO2, T 308.0 K (text 308.2 K), P 27 MPa, ρCO2 913.70 kg/m^3, read-out: Solubility in supercritical carbon dioxide",210 µg/mL
same,solubility at 240 min,"[1]; supercritical CO2, T 308.0 K (text 308.2 K), P 30 MPa, ρCO2 929.85 kg/m^3, read-out: Solubility in supercritical carbon dioxide",237 µg/mL
same,solubility at 240 min,"[1]; supercritical CO2, T 318.0 K (text 318.2 K), P 12 MPa, ρCO2 659.80 kg/m^3, read-out: Solubility in supercritical carbon dioxide",40.6 µg/mL
same,solubility at 240 min,"[1]; supercritical CO2, T 318.0 K (text 318.2 K), P 15 MPa, ρCO2 743.83 kg/m^3, read-out: Solubility in supercritical carbon dioxide",83.5 µg/mL
same,solubility at 240 min,"[1]; supercritical CO2, T 318.0 K (text 318.2 K), P 18 MPa, ρCO2 790.29 kg/m^3, read-out: Solubility in supercritical carbon dioxide",114 µg/mL
same,solubility at 240 min,"[1]; supercritical CO2, T 318.0 K (text 318.2 K), P 21 MPa, ρCO2 823.80 kg/m^3, read-out: Solubility in supercritical carbon dioxide",158 µg/mL
same,solubility at 240 min,"[1]; supercritical CO2, T 318.0 K (text 318.2 K), P 24 MPa, ρCO2 850.15 kg/m^3, read-out: Solubility in supercritical carbon dioxide",213 µg/mL
same,solubility at 240 min,"[1]; supercritical CO2, T 318.0 K (text 318.2 K), P 27 MPa, ρCO2 872.14 kg/m^3, read-out: Solubility in supercritical carbon dioxide",250 µg/mL
same,solubility at 240 min,"[1]; supercritical CO2, T 318.0 K (text 318.2 K), P 30 MPa, ρCO2 890.90 kg/m^3, read-out: Solubility in supercritical carbon dioxide",269 µg/mL
same,solubility at 240 min,"[1]; supercritical CO2, T 328.0 K (text 328.2 K), P 12 MPa, ρCO2 506.75 kg/m^3, read-out: Solubility in supercritical carbon dioxide",20.4 µg/mL
same,solubility at 240 min,"[1]; supercritical CO2, T 328.0 K (text 328.2 K), P 15 MPa, ρCO2 654.94 kg/m^3, read-out: Solubility in supercritical carbon dioxide",57.8 µg/mL
same,solubility at 240 min,"[1]; supercritical CO2, T 328.0 K (text 328.2 K), P 18 MPa, ρCO2 724.13 kg/m^3, read-out: Solubility in supercritical carbon dioxide",114 µg/mL
same,solubility at 240 min,"[1]; supercritical CO2, T 328.0 K (text 328.2 K), P 21 MPa, ρCO2 768.74 kg/m^3, read-out: Solubility in supercritical carbon dioxide",165 µg/mL
same,solubility at 240 min,"[1]; supercritical CO2, T 328.0 K (text 328.2 K), P 24 MPa, ρCO2 801.92 kg/m^3, read-out: Solubility in supercritical carbon dioxide",216 µg/mL
same,solubility at 240 min,"[1]; supercritical CO2, T 328.0 K (text 328.2 K), P 27 MPa, ρCO2 828.51 kg/m^3, read-out: Solubility in supercritical carbon dioxide",260 µg/mL
same,solubility at 240 min,"[1]; supercritical CO2, T 328.0 K (text 328.2 K), P 30 MPa, ρCO2 850.83 kg/m^3, read-out: Solubility in supercritical carbon dioxide",288 µg/mL
same,solubility at 240 min,"[1]; supercritical CO2, T 338.0 K (text 338.2 K), P 12 MPa, ρCO2 384.17 kg/m^3, read-out: Solubility in supercritical carbon dioxide",8.3 µg/mL
same,solubility at 240 min,"[1]; supercritical CO2, T 338.0 K (text 338.2 K), P 15 MPa, ρCO2 555.33 kg/m^3, read-out: Solubility in supercritical carbon dioxide",67.5 µg/mL
same,solubility at 240 min,"[1]; supercritical CO2, T 338.0 K (text 338.2 K), P 18 MPa, ρCO2 651.28 kg/m^3, read-out: Solubility in supercritical carbon dioxide",124 µg/mL
same,solubility at 240 min,"[1]; supercritical CO2, T 338.0 K (text 338.2 K), P 21 MPa, ρCO2 709.59 kg/m^3, read-out: Solubility in supercritical carbon dioxide",176 µg/mL
same,solubility at 240 min,"[1]; supercritical CO2, T 338.0 K (text 338.2 K), P 24 MPa, ρCO2 751.27 kg/m^3, read-out: Solubility in supercritical carbon dioxide",223 µg/mL
same,solubility at 240 min,"[1]; supercritical CO2, T 338.0 K (text 338.2 K), P 27 MPa, ρCO2 783.19 kg/m^3, read-out: Solubility in supercritical carbon dioxide",270 µg/mL
same,solubility at 240 min,"[1]; supercritical CO2, T 338.0 K (text 338.2 K), P 30 MPa, ρCO2 809.68 kg/m^3, read-out: Solubility in supercritical carbon dioxide",302 µg/mL
same,enthalpy of vaporization,[2],12.08 kcal/mol
same,overall (total) enthalpy,[2],9.097 kcal/mol
same,solubility at 60 min,"[3]; T 338, P 30, Time 60",78.8 ± 0.7 µg/mL
same,solubility at 90 min,"[3]; T 338, P 30, Time 90",167.6 ± 0.8 µg/mL
same,solubility at 120 min,"[3]; T 338, P 30, Time 120",212.9 ± 0.8 µg/mL
same,solubility at 150 min,"[3]; T 338, P 30, Time 150",279 ± 1.1 µg/mL
same,solubility at 180 min,"[3]; T 338, P 30, Time 180",285.8 ± 1.2 µg/mL
same,solubility at 210 min,"[3]; T 338, P 30, Time 210",301.8 ± 1.4 µg/mL
same,solubility at 240 min,"[3]; T 338, P 30, Time 240",301.8 ± 1.5 µg/mL
